This passage reports Ki results from patent EP0148440A1, “1,3,4,5-Tetrahydrobenzo(c,d)indoles, process for their preparation and their uses” (Troponwerke GmbH & Co. KG, priority 1983, dated 1985).

The test has as its target T1, 5-HT2 (Rattus norvegicus, UniProt P14842).
T1 construct: Präfrontaler Cortex-Ratte; from tissue; host or cells: rat prefrontal cortex membranes
Description: Affinity to serotonin receptors: 5-HT2, displacement of ^3H-Ketanserin. To be noted: Präfrontaler Cortex-Ratte membranes, read-out: Inhibitionskonstante Ki. Format: binding.

T1 sequence (P14842 whole entry): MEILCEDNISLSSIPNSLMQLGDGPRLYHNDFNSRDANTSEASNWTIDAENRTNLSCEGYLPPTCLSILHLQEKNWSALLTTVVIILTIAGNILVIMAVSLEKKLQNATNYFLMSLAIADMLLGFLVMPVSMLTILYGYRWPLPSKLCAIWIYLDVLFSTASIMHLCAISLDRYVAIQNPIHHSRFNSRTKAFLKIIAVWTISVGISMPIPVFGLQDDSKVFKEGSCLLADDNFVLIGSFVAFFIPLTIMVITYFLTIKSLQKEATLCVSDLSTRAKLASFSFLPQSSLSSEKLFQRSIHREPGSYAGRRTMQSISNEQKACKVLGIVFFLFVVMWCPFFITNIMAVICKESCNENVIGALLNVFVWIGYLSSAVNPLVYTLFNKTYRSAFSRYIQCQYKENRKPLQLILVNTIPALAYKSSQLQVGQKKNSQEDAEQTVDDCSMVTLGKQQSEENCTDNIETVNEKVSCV

Regarding `CCCN(CCC)C1Cc2c[nH]c3ccc(OC)c(c23)C1` (stereo not shown) [Beispiel 1, 6-Methoxy-4-dipropylamino-1,3,4,5-tetrahydrobenz[c,d]-indol], the Ki (as a rule, the equilibrium dissociation constant of an inhibitor or competing ligand from its target) is 1.8 µM.
